Where a name gives a salt, the structure may show the parent alone. Read-outs that look alike come from different tables or passages of the source.
Legend:
[1] = compaction susceptibility (tendency of the salt to compact under its own weight); type: physicochemical
[2] = hygroscopicity / moisture uptake at 95% relative humidity by Dynamic Vapour Sorption (DVS); type: physicochemical; details: for % moisture uptake, 30 min / % moisture uptake, 70 min / % moisture uptake, 3 hours / % moisture uptake, 6 hours: DVS; for moisture uptake equilibrium reached or not: at the last time point (6 hours; 30 min for succinate)
Method: The following experiment was carried out to determine moisture sorption/desorption profiles of metformin (2:1) fumarate salt and metformin (2:1) succinate salt compared to the moisture uptake properties of metformin hydrochloride salt.
The hygroscopicity of metformin salts was assessed by Dynamic Vapour Sorption (DVS), a means of rapidly assessing sample moisture uptake properties. […] […] The weight increase of sample at each condition is recorded until a defined minimal rate of mass change is reached or a specified time period for equilibrium exceeded.

[3] = 95% relative humidity/25° C., hydrochloride

compaction susceptibility [1]	moisture content after 6 hours (summary) ([2]; 95% relative humidity at 25° C.) [%]	% moisture uptake, 30 min ([2]; 95% relative humidity/25° C.) [%]	% moisture uptake, 70 min ([2]; 95% relative humidity/25° C.) [%]	% moisture uptake, 3 hours ([2]; 95% relative humidity/25° C.) [%]	hygroscopicity, moisture uptake at 6 hours ([2]; 95% relative humidity/25° C.)	% moisture uptake, 6 hours ([2]; 95% relative humidity/25° C.) [%]	equilibrium moisture content after 30 minutes (summary) ([2]; 95% relative humidity at 25° C., 30 minutes) [%]	hygroscopicity, moisture uptake at 30 minutes ([2]; 95% relative humidity/25° C., 30 minutes)	moisture uptake equilibrium reached or not ([2]; 95% relative humidity/25° C.)	compaction susceptibility ([1]; hydrochloride)	moisture content after 6 hours (summary) ([2]; 95% relative humidity at 25° C., hydrochloride) [%]	% moisture uptake, 30 min [2, 3] [%]	% moisture uptake, 70 min [2, 3] [%]	% moisture uptake, 3 hours [2, 3] [%]	% moisture uptake, 6 hours [2, 3] [%]	hygroscopicity, moisture uptake at 6 hours [2, 3]	Compound	moisture absorbed compared to the metformin (2:1) fumarate and succinate salts ([2]; vs metformin (2:1) fumarate and succinate salts, 95% relative humidity)
low compaction susceptibility	6.6	1.0	2.0	4.1	less than 7 % moisture uptake	6.6											CN(C)C(=N)N=C(N)N [metformin (2:1) fumarate]	
low compaction susceptibility		0.27			less than 7 % moisture uptake		0.27	less than 1 % moisture uptake	reach equilibrium								CN(C)C(=N)NC(=N)N [metformin (2:1) succinate]	
									did not reach equilibrium	high compaction susceptibility	20	1.2	3.3	10.0	20.1	greater than 20 % moisture uptake	CN(C)C(=N)N=C(N)N [metformin hydrochloride, reference compound]	substantially greater amounts of moisture
